The kinase profiling compilation of Christmann-Franck et al. (2016)

What was measured:
Experiment in all cases: radiometric filter-binding kinase assay
[1] = test system: AKT1 (human), P31749 [S473D]
[2] = molecular target: AURKA (human) (UniProt O14965)
[3] = molecular target: BRSK2 (human) (UniProt Q8IWQ3)
[4] = molecular target: CHEK2 (human) (UniProt O96017)
[5] = molecular target: CaMK1 (human) (UniProt Q14012)
[6] = molecular target: DYRK1A (human) (UniProt Q13627)
[7] = molecular target: DYRK2 (human) (UniProt Q92630)
[8] = molecular target: EPHB2 (human) (UniProt P29323)
Chain of EPHB2 (human) (P29323 whole entry, looked up): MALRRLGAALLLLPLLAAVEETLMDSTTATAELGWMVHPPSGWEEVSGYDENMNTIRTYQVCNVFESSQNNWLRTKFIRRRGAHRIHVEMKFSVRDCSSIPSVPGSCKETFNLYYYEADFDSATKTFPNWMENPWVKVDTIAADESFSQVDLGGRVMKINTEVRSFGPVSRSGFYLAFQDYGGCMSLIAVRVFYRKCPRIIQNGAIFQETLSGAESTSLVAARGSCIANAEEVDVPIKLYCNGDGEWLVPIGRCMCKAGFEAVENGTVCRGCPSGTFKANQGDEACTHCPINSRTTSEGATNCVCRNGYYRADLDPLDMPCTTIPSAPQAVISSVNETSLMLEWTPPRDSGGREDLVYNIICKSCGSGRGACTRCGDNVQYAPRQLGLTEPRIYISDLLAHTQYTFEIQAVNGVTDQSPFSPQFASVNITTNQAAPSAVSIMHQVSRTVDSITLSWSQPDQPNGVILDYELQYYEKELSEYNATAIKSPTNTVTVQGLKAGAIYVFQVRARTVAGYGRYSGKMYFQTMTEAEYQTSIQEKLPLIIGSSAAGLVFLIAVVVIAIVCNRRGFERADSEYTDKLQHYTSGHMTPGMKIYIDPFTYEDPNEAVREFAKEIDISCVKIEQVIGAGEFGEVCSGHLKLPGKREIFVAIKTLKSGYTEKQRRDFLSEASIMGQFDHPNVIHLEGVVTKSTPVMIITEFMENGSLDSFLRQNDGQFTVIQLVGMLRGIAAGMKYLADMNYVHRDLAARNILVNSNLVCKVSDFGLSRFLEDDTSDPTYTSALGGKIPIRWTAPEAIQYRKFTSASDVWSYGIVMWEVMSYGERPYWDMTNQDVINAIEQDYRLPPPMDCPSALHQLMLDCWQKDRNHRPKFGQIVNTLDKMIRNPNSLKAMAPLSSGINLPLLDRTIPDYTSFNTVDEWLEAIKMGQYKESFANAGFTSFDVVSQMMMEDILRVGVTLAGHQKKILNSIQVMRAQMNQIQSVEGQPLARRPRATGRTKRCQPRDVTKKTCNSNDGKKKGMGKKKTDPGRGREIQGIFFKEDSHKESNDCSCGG

[9] = molecular target: EPHB3 (human) (UniProt P54753)
[10] = molecular target: ERBB4 (human) (UniProt Q15303)
[11] = molecular target: HIPK2 (human) (UniProt Q9H2X6)
[12] = molecular target: IKBKE (human) (UniProt Q14164)
[13] = molecular target: MAP2K6 (human) (UniProt P52564)
[14] = molecular target: MAP3K11 (human) (UniProt Q16584)
Chain of MAP3K11 (human) (Q16584 whole entry, looked up): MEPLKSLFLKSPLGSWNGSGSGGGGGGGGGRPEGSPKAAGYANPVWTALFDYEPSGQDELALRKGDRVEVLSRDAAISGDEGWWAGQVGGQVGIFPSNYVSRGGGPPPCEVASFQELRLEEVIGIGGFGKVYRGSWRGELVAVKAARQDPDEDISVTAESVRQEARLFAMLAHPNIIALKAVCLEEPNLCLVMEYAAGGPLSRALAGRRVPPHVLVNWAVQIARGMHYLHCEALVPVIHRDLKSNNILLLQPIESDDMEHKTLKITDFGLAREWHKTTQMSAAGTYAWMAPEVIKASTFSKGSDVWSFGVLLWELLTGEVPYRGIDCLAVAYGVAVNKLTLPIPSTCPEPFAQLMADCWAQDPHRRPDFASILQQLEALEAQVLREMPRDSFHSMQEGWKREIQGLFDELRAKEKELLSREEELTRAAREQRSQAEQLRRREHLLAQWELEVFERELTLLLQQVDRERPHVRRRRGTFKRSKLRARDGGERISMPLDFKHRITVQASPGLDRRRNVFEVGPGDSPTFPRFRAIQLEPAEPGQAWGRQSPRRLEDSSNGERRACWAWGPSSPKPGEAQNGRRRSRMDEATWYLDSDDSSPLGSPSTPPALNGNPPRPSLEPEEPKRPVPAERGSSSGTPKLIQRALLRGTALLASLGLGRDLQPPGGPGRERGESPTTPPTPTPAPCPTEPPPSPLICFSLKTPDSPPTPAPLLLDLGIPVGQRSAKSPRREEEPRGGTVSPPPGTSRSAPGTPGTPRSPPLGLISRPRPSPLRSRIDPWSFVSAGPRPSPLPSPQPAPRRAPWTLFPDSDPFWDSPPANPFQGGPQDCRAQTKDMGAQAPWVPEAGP

[15] = molecular target: MAPK1 (human) (UniProt P28482)
[16] = molecular target: MAPK10 (human) (UniProt P53779)
[17] = molecular target: MAPK12 (human) (UniProt P53778)
[18] = molecular target: MAPK13 (human) (UniProt O15264)
[19] = molecular target: MAPK3 (human) (UniProt P27361)
Chain of MAPK3 (human) (P27361 whole entry, looked up): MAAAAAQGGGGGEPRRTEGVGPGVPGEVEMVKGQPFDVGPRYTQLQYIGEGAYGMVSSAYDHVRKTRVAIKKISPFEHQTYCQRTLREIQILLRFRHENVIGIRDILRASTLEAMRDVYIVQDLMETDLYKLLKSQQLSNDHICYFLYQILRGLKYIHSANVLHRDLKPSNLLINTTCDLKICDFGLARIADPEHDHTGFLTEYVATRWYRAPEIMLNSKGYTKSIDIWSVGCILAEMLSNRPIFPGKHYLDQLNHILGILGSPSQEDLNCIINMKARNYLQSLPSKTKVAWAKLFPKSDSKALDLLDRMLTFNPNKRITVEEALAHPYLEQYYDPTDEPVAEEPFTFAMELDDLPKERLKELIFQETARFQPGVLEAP

[20] = molecular target: MAPK8 (human) (UniProt P45983)
Chain of MAPK8 (human) (P45983 whole entry, looked up): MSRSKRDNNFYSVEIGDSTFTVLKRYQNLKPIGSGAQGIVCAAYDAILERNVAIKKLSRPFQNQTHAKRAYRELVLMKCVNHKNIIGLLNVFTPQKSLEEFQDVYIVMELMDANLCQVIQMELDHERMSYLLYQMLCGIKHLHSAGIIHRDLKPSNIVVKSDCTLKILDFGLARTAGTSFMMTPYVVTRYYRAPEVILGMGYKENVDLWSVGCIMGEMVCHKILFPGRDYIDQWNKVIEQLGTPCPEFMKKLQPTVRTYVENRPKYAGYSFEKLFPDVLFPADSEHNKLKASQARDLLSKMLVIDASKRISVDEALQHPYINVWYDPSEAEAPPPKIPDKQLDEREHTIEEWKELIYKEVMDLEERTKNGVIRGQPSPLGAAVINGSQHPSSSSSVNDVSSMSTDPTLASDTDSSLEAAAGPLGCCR

[21] = molecular target: MAPKAPK3 (human) (UniProt Q16644)
[22] = molecular target: MARK2 (human) (UniProt Q7KZI7)
[23] = molecular target: MKNK1 (human) (UniProt Q9BUB5)
Chain of MKNK1 (human) (Q9BUB5 whole entry, looked up): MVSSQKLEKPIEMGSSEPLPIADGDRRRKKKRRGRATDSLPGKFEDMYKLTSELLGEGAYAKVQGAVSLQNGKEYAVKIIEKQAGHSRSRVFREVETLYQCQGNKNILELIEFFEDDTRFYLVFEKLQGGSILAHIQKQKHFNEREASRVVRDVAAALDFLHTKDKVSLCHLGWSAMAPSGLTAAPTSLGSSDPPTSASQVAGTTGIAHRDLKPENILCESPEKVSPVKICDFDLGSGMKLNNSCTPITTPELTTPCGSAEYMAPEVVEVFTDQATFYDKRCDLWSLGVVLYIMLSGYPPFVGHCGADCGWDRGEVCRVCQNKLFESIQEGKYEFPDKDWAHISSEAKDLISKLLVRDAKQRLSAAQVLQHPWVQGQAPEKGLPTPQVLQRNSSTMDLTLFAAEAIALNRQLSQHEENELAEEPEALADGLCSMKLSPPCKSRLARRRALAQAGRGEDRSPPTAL

[24] = molecular target: MST4 (human) (UniProt Q9P289)
[25] = molecular target: NEK2 (human) (UniProt P51955)
[26] = molecular target: NUAK1 (human) (UniProt O60285)
[27] = molecular target: PAK4 (human) (UniProt O96013)
[28] = molecular target: PAK7 (human) (UniProt Q9P286)
Chain of PAK7 (human) (Q9P286 whole entry, looked up): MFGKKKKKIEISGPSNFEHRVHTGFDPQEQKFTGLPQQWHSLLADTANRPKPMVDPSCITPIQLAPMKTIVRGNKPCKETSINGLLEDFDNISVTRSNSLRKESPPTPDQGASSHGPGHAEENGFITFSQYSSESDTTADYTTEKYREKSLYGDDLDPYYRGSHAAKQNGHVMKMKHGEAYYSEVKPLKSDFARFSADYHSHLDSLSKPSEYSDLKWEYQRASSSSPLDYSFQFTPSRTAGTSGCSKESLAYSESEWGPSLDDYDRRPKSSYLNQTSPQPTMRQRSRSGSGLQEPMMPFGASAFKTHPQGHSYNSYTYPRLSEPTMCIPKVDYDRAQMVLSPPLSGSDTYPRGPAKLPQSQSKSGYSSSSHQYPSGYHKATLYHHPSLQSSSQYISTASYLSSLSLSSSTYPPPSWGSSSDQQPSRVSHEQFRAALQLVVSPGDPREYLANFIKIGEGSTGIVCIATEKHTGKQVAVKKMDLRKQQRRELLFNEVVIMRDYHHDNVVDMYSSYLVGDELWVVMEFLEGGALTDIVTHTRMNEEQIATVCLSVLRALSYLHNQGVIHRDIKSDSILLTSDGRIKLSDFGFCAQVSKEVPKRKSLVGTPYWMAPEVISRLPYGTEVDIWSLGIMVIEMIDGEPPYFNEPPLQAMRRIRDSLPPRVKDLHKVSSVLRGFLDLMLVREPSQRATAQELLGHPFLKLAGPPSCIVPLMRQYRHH

[29] = molecular target: PLK1 (human) (UniProt P53350)
[30] = test system: PRKAA1 or PRKAA2 (rat); settings: accession and sequence are those of the human protein
[31] = molecular target: PRKACA (human) (UniProt P17612)
[32] = molecular target: PRKCA (human) (UniProt P17252)
[33] = molecular target: RPS6KA1 KD1 KD2 (human) (UniProt Q15418)
Chain of RPS6KA1 KD1 KD2 (human) (Q15418 whole entry, looked up): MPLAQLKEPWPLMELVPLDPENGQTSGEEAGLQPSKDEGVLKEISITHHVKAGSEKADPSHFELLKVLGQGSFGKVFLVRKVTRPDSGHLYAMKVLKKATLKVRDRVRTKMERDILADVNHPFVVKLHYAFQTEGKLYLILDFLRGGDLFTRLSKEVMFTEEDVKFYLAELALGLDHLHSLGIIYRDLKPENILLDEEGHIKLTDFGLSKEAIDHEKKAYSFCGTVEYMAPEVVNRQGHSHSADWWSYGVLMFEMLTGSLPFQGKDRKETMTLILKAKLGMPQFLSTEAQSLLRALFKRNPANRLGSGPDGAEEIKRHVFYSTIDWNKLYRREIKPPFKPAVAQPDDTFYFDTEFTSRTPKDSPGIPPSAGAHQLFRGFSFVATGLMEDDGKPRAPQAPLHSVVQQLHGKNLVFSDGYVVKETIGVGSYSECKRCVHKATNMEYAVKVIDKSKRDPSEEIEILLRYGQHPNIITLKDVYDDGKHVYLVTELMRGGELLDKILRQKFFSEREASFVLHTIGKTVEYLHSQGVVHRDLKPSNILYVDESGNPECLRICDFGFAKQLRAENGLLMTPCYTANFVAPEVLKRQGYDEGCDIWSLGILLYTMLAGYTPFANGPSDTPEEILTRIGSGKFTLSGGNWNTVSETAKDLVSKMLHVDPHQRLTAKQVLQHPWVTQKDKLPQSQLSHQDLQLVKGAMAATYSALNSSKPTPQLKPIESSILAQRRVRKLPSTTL

[34] = test system: SGK1 (human), O00141 [S422D]
[35] = molecular target: SYK (human) (UniProt P43405)

Chain of CaMK1 (human) (Q14012 whole entry, looked up): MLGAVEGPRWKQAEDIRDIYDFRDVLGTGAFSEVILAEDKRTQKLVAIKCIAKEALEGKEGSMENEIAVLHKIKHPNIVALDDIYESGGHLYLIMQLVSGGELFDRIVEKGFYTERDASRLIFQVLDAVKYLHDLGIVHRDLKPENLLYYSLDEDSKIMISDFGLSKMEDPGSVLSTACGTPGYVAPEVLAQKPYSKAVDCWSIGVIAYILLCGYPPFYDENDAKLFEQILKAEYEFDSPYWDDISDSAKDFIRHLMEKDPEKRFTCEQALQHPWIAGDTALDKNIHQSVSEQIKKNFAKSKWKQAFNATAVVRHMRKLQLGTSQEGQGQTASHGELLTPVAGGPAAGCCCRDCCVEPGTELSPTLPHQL

Question: `c1ccc2c(-c3cnn4cc(-c5ccc(N6CCNCC6)cc5)cnc34)ccnc2c1` was tested. Which residual activity ([1]; compound 0.1 µM) did it give?
Answer: The residual activity was 102%.

Question: What about the residual activity ([1]; compound 1.0 µM) of the same compound?
Answer: The residual activity was 103%.

Question: What about the residual activity ([2]; compound 0.1 µM) of the same compound?
Answer: Its residual activity is 100%.

Question: What about the residual activity ([2]; compound 1.0 µM) of the same compound?
Answer: The residual activity was 91%.

Question: What about the residual activity ([2]; compound 10.0 µM) of the same compound?
Answer: Its residual activity is 56%.

Question: What about the residual activity ([3]; compound 0.1 µM) of the same compound?
Answer: Its residual activity is 88%.

Question: And the residual activity ([3]; compound 1.0 µM)?
Answer: Its residual activity is 68%.

Question: What about the residual activity ([3]; compound 10.0 µM) of the same compound?
Answer: Its residual activity is 20%.

Question: What about the residual activity ([4]; compound 0.1 µM) of the same compound?
Answer: Its residual activity is 99%.

Question: What about the residual activity ([4]; compound 1.0 µM) of the same compound?
Answer: Its residual activity is 103%.

Question: What about the residual activity ([4]; compound 10.0 µM) of the same compound?
Answer: Its residual activity is 59%.

Question: What about the residual activity ([5]; compound 0.1 µM) of the same compound?
Answer: Its residual activity is 86%.

Question: What about the residual activity ([5]; compound 1.0 µM) of the same compound?
Answer: The residual activity was 85%.

Question: And the residual activity ([5]; compound 10.0 µM)?
Answer: Its residual activity is 45%.

Question: What about the residual activity ([6]; compound 0.1 µM) of the same compound?
Answer: Its residual activity is 75%.

Question: What about the residual activity ([6]; compound 1.0 µM) of the same compound?
Answer: Its residual activity is 40%.

Question: And the residual activity ([6]; compound 10.0 µM)?
Answer: The residual activity was 9%.

Question: And the residual activity ([7]; compound 0.1 µM)?
Answer: The residual activity was 108%.

Question: What about the residual activity ([7]; compound 1.0 µM) of the same compound?
Answer: Its residual activity is 107%.

Question: What about the residual activity ([7]; compound 10.0 µM) of the same compound?
Answer: Its residual activity is 77%.

Question: And the residual activity ([8]; compound 0.1 µM)?
Answer: Its residual activity is 108%.

Question: What about the residual activity ([8]; compound 1.0 µM) of the same compound?
Answer: The residual activity was 80%.

Question: And the residual activity ([8]; compound 10.0 µM)?
Answer: The residual activity was 37%.

Question: And the residual activity ([9]; compound 0.1 µM)?
Answer: Its residual activity is 88%.

Question: And the residual activity ([9]; compound 1.0 µM)?
Answer: Its residual activity is 75%.

Question: What about the residual activity ([9]; compound 10.0 µM) of the same compound?
Answer: Its residual activity is 48%.

Question: And the residual activity ([10]; compound 0.1 µM)?
Answer: The residual activity was 88%.

Question: What about the residual activity ([10]; compound 1.0 µM) of the same compound?
Answer: Its residual activity is 76%.

Question: What about the residual activity ([10]; compound 10.0 µM) of the same compound?
Answer: The residual activity was 56%.

Question: And the residual activity ([11]; compound 0.1 µM)?
Answer: The residual activity was 93%.

Question: And the residual activity ([11]; compound 1.0 µM)?
Answer: Its residual activity is 91%.

Question: And the residual activity ([11]; compound 10.0 µM)?
Answer: Its residual activity is 56%.

Question: And the residual activity ([12]; compound 0.1 µM)?
Answer: Its residual activity is 87%.

Question: And the residual activity ([12]; compound 1.0 µM)?
Answer: The residual activity was 89%.

Question: What about the residual activity ([12]; compound 10.0 µM) of the same compound?
Answer: The residual activity was 56%.

Question: And the residual activity ([13]; compound 0.1 µM)?
Answer: Its residual activity is 87%.

Question: And the residual activity ([13]; compound 1.0 µM)?
Answer: Its residual activity is 89%.

Question: What about the residual activity ([13]; compound 10.0 µM) of the same compound?
Answer: The residual activity was 104%.

Question: And the residual activity ([14]; compound 0.1 µM)?
Answer: The residual activity was 86%.

Question: And the residual activity ([14]; compound 1.0 µM)?
Answer: The residual activity was 33%.

Question: And the residual activity ([14]; compound 10.0 µM)?
Answer: The residual activity was 8%.

Question: What about the residual activity ([15]; compound 0.1 µM) of the same compound?
Answer: Its residual activity is 89%.

Question: And the residual activity ([15]; compound 1.0 µM)?
Answer: Its residual activity is 89%.

Question: And the residual activity ([15]; compound 10.0 µM)?
Answer: Its residual activity is 107%.

Question: And the residual activity ([16]; compound 0.1 µM)?
Answer: The residual activity was 98%.

Question: What about the residual activity ([16]; compound 1.0 µM) of the same compound?
Answer: The residual activity was 97%.

Question: And the residual activity ([16]; compound 10.0 µM)?
Answer: The residual activity was 94%.

Question: And the residual activity ([17]; compound 0.1 µM)?
Answer: Its residual activity is 78%.

Question: And the residual activity ([17]; compound 1.0 µM)?
Answer: The residual activity was 79%.

Question: What about the residual activity ([18]; compound 0.1 µM) of the same compound?
Answer: Its residual activity is 89%.

Question: And the residual activity ([18]; compound 1.0 µM)?
Answer: Its residual activity is 110%.

Question: And the residual activity ([18]; compound 10.0 µM)?
Answer: The residual activity was 72%.

Question: What about the residual activity ([19]; compound 0.1 µM) of the same compound?
Answer: Its residual activity is 89%.

Question: What about the residual activity ([19]; compound 1.0 µM) of the same compound?
Answer: Its residual activity is 97%.

Question: And the residual activity ([19]; compound 10.0 µM)?
Answer: Its residual activity is 90%.

Question: And the residual activity ([20]; compound 0.1 µM)?
Answer: The residual activity was 89%.

Question: What about the residual activity ([20]; compound 1.0 µM) of the same compound?
Answer: Its residual activity is 101%.

Question: And the residual activity ([20]; compound 10.0 µM)?
Answer: The residual activity was 78%.

Question: And the residual activity ([21]; compound 0.1 µM)?
Answer: Its residual activity is 80%.

Question: What about the residual activity ([21]; compound 1.0 µM) of the same compound?
Answer: Its residual activity is 79%.

Question: What about the residual activity ([21]; compound 10.0 µM) of the same compound?
Answer: Its residual activity is 86%.

Question: What about the residual activity ([22]; compound 0.1 µM) of the same compound?
Answer: Its residual activity is 76%.

Question: What about the residual activity ([22]; compound 1.0 µM) of the same compound?
Answer: Its residual activity is 63%.

Question: What about the residual activity ([22]; compound 10.0 µM) of the same compound?
Answer: Its residual activity is 32%.

Question: And the residual activity ([23]; compound 0.1 µM)?
Answer: Its residual activity is 82%.

Question: What about the residual activity ([23]; compound 1.0 µM) of the same compound?
Answer: The residual activity was 63%.

Question: What about the residual activity ([23]; compound 10.0 µM) of the same compound?
Answer: The residual activity was 39%.

Question: What about the residual activity ([24]; compound 0.1 µM) of the same compound?
Answer: The residual activity was 105%.

Question: And the residual activity ([24]; compound 1.0 µM)?
Answer: The residual activity was 123%.

Question: What about the residual activity ([24]; compound 10.0 µM) of the same compound?
Answer: Its residual activity is 181%.

Question: What about the residual activity ([25]; compound 0.1 µM) of the same compound?
Answer: The residual activity was 118%.

Question: And the residual activity ([25]; compound 1.0 µM)?
Answer: The residual activity was 119%.

Question: What about the residual activity ([25]; compound 10.0 µM) of the same compound?
Answer: Its residual activity is 79%.

Question: And the residual activity ([26]; compound 0.1 µM)?
Answer: The residual activity was 57%.

Question: And the residual activity ([26]; compound 1.0 µM)?
Answer: The residual activity was 17%.

Question: What about the residual activity ([26]; compound 10.0 µM) of the same compound?
Answer: The residual activity was 5%.

Question: And the residual activity ([27]; compound 0.1 µM)?
Answer: Its residual activity is 82%.

Question: And the residual activity ([27]; compound 1.0 µM)?
Answer: The residual activity was 94%.

Question: And the residual activity ([27]; compound 10.0 µM)?
Answer: The residual activity was 62%.

Question: What about the residual activity ([28]; compound 0.1 µM) of the same compound?
Answer: The residual activity was 95%.

Question: And the residual activity ([28]; compound 1.0 µM)?
Answer: Its residual activity is 82%.

Question: And the residual activity ([28]; compound 10.0 µM)?
Answer: The residual activity was 72%.

Question: And the residual activity ([29]; compound 0.1 µM)?
Answer: The residual activity was 97%.

Question: What about the residual activity ([29]; compound 1.0 µM) of the same compound?
Answer: Its residual activity is 100%.

Question: And the residual activity ([29]; compound 10.0 µM)?
Answer: Its residual activity is 91%.

Question: What about the residual activity ([30]; compound 0.1 µM) of the same compound?
Answer: The residual activity was 96%.

Question: What about the residual activity ([30]; compound 1.0 µM) of the same compound?
Answer: The residual activity was 59%.

Question: And the residual activity ([30]; compound 10.0 µM)?
Answer: Its residual activity is 18%.

Question: What about the residual activity ([31]; compound 0.1 µM) of the same compound?
Answer: Its residual activity is 99%.

Question: What about the residual activity ([31]; compound 1.0 µM) of the same compound?
Answer: Its residual activity is 101%.

Question: What about the residual activity ([31]; compound 10.0 µM) of the same compound?
Answer: The residual activity was 94%.

Question: And the residual activity ([32]; compound 0.1 µM)?
Answer: The residual activity was 92%.

Question: And the residual activity ([32]; compound 1.0 µM)?
Answer: The residual activity was 96%.

Question: What about the residual activity ([32]; compound 10.0 µM) of the same compound?
Answer: The residual activity was 88%.

Question: And the residual activity ([33]; compound 0.1 µM)?
Answer: Its residual activity is 86%.

Question: What about the residual activity ([33]; compound 1.0 µM) of the same compound?
Answer: Its residual activity is 79%.

Question: And the residual activity ([33]; compound 10.0 µM)?
Answer: Its residual activity is 29%.

Question: What about the residual activity ([34]; compound 0.1 µM) of the same compound?
Answer: Its residual activity is 62%.

Question: And the residual activity ([34]; compound 1.0 µM)?
Answer: Its residual activity is 79%.

Question: And the residual activity ([34]; compound 10.0 µM)?
Answer: The residual activity was 70%.

Question: And the residual activity ([35]; compound 0.1 µM)?
Answer: The residual activity was 82%.

Question: What about the residual activity ([35]; compound 1.0 µM) of the same compound?
Answer: Its residual activity is 80%.

Question: And the residual activity ([35]; compound 10.0 µM)?
Answer: Its residual activity is 36%.
